Results published in patent US20230167408A1, “METHODS AND COMPOSITIONS FOR MAINTAINING AND EXPANDING HEMATOPOIETIC STEM CELLS” (Trailhead Biosystems Inc., priority 2021, published 2023).
Entries after “also recorded” stand apart in the source; their conditions may differ.

Key:
Format in all cases: cell-based, human
[1] = test system: CD34+ population of cells isolated from cord blood; assay: Factor criticality analysis (dynamic profile analysis) of HSC expansion recipe; parameters: GATA2 expression level / MEG3 expression level / CRHBP expression level: unit not given here
Text: In this example, to assess the impact of elimination of each validated factor identified as described in Example 1, dynamic profile analysis was used and compared the expression level of genes of interest in the absence of each finalized factor while others are kept present. […] The results of the criticality analysis for the factors FICZ, LPA, Vit. C and Activin A are shown in FIG. 6A-B. The results of the criticality analysis for VPA are shown in FIG. 7A-B. The results of the criticality analysis for Yhhu 3792 are shown in and FIG. 8A-B.
For the HSC expansion recipe, each of the six finalized factors were removed while other five factors were present and the expression levels of GATA2, HOXA5, CRHBP was assessed compared to the presence of all […]. Because SCF and TPO are cytokines impacting cell growth and survival, our recipe included these cytokines as well. When FICZ was removed, values for GATA2 expression decreased from 642 to 512, while HOXA5 and MEG3 expression was unchanged. […] Removal of Vit.C decreased the level of MEG3 from 82 to 53. Activin A is a critical factor for MEG3, since its removal decreases MEG3 levels from 81 to 40.

[2] = test system: CD34+ population of cells isolated from cord blood; assay: HD-DoE effector experiments, gene expression modeling after 3-day treatment; details: for factor contribution (impact) on expression of CRHBP: 8-factor experiment tropoelastin, lipid mixture, propionate, biotin, geltrex, N-acetyl cysteine, prostaglandin E2, VPA, FIG. 3/4; for factor contribution on expression of CRHBP: Yhhu 3792, fibronectin, TPCA-1, GW9662, Z-vad-fmk, VEGF, FIG. 5; for factor contribution on expression of MEG3: same 8-factor experiment optimized for maximum MEG3, FIG. 2
Text: This example utilizes a method of High-Dimensional Design of Experiments (HD-DoE), as previously described in Bukys et al. (2020) Iscience 23:101346. The method employs computerized design geometries to simultaneously test multiple process inputs and offers mathematical modeling of a deep effector/response space. The method allows for finding combinatorial signaling inputs that control a complex process, such as during cell differentiation. It allows testing of multiple plausible critical process parameters, as such parameters impact output responses, such as gene expression. Because gene expression provides hallmark features of the phenotype of, for example, a human cell, the method can be applied to identify, and understand, which signaling pathways control cell fate. In the current example, the HD-DOE method was applied with the intent to find conditions for expansion and maintenance of HSCs.
Specifically, to develop the HSC recipe, the impact of agonists and antagonists of multiple signaling pathways (herein called effectors) were tested on expression of two sets of 53 pre-selected genes after a 3-day treatment. Specific genes in the measured subset are highly enriched in HSC and include CRHBP, MLLT3, MEG3, MECOM, HOXA5 and GATA2. The effectors chosen include small molecules or proteins, some of which are used during in vitro expansion of HSC.
To test the effectors, experiments with at least 8 factors were designed that can assess the response of cells to 48 or more different combinations of effectors in a range of concentrations. To analyze the models, we focused on expression of genes that are either expressed or enriched in primitive HSC including CRHBP, GATA2, MLLT3 and MEG3. The impact of each effector on gene expression level is defined by a parameter called factor contribution that is calculated for each effector during the modeling. All the experiments were conducted using a CD34^+ population of cells isolated from cord blood.
To identify the recipe for HSC expansion, cells were treated with various effectors for 3 days in media containing stem cell factor (SCF) and thrombopoietin (TPO) and the gene expression of cells was modeled. […] Additionally, on this model we observed NOTCH1 upregulation and MPO downregulation. […] Previous studies have shown that NOTCH1 activation increases HSC self-renewal in vivo (Stier et al. (2002) Blood 99:2369-78).
To further improve the recipe for HSC maintenance and expansion, additional HD-DoE experiments were performed. […] The goal was to evaluate further factors to possibly increase the complexity of the signaling inputs to attain effective fate control. As previously, we focused on expression of HSC enriched genes mentioned earlier. An 8-factor experiment was performed, testing tropoelastin, lipid mixture, propionate, biotin, geltrex, N-acetyl cysteine, prostaglandin E2, and VPA. Similar to the previous experiment, CD34^+ cells were treated with 48 conditions of combinations of the factors for 3 days and gene expression analysis and modeling was performed.
To further improve the recipe for HSC maintenance and expansion, additional HD-DoE experiments were performed. Another 8-factor experiment was performed consisting of LPA, Yhhu 3792, fibronectin, TPCA-1, GW9662, Z-vad-fmk, VEGF and activin A. Similarly to the previous experiment, CD34^+ cells were treated with 48 conditions of combinations of the factors for 3 days and then gene expression analysis experiments were conducted.

CD34+ cells = assay: Culture of CD34+ cells in the presence of commonly used cytokines
Experimental: To further validate the HSC culture recipe described in Example 1, CD34+ cord blood derived cells were grown for 7 days in media comprising the ingredients shown in Table 1 and flow cytometry analysis was used to assess markers of the LT-HSC state. Markers tested included Lineage (CD3, CD14, CD16, CD19, CD20, CD56), CD34, CD38, CD45RA and CD90. Additionally, cells were grown in media with SCF and TPO as a control, commonly used by others to promote HSC expansion. […] 100,000 cells were plated for each condition.

[3] = named factor removed, other factors present
[4] = 8-factor experiment LPA, FICZ, Pyrintegrin, Laminin521, G0693, Vit.C, G-SCF, activin A, 3 days, media with SCF and TPO, FIG. 1/2
[5] = 8-factor experiment LPA, activin A, 3 days
[6] = 8-factor experiment with tropoelastin ... VPA
[7] = 8-factor experiment with tropoelastin ... VPA optimized for maximum GATA2, FIG. 4

## O=Cc1c2c(cc3c1=Nc1ccccc1-3)=Nc1ccccc1-2 [FICZ, 6-Formylindolo[3,2-b]carbazole]
[1]; all finalized factors present
  GATA2 expression level: 642
[1]; [3]
  GATA2 expression level: 512
  HOXA5 expression level: unchanged
  MEG3 expression level: unchanged
[2]; [4]
  factor contribution (impact) on expression of GATA2: 21
[2]; 8-factor experiment LPA, FICZ, Pyrintegrin, Laminin521, G0693, Vit.C, G-SCF, activin A, 3 days, media with SCF and TPO, FIG. 1/2, listed as FCIZ
  factor contribution (impact) on expression of GATA2: positive impact

## CC(=O)N[C@@H](CS)C(=O)O [N-acetyl cysteine]
[2]; 3 days
  factor contribution (impact) on expression of CRHBP: < 1

## CCC(=O)O [Propionate, propionate]
[2]; 3 days
  factor contribution (impact) on expression of CRHBP: 8

## CCCC(CCC)C(=O)O [VPA, Valproic acid]
[1]; all finalized factors present
  CRHBP expression level: 285
  MEG3 expression level: 106
[1]; [3]
  CRHBP expression level: 138
  GATA2 expression level: reduced
  MEG3 expression level: 52
[2]; 8-factor experiment with tropoelastin ... VPA, FIG. 4
  impact on expression of MEG3: positive impact

## COc1cccc(Oc2cccc3nc(Nc4ccc(C(C)C)cc4)nc(N)c23)c1 [Yhhu 3792]
[1]; all finalized factors present
  CRHBP expression level: 202
[1]; [3]
  CRHBP expression level: 169
[2]; [5]
  factor contribution on expression of CRHBP: 19

## O=C(O)CCCC[C@@H]1SC[C@@H]2NC(=O)N[C@@H]21 [biotin]
[2]; 3 days
  factor contribution (impact) on expression of CRHBP: 5

## CCCCC[C@H](O)/C=C/[C@H]1[C@H](O)CC(=O)[C@@H]1C/C=C\CCCC(=O)O [prostaglandin E2]
[2]; [6]
  effect of treatment on other HSC enriched genes: downregulates
[2]; [7]
  factor contribution (impact) on expression of GATA2: 25

## IL6: commonly used cytokine to expand HSC
CD34+ cells
  lineage bias of CD34+ cells cultured in the presence of the cytokine: induction of a myeloid bias

## L-ascorbic acid phosphate sesquimagnesium salt hydrate [Vit.C]
[1]; all finalized factors present
  MEG3 expression level: 82
[1]; [3]
  MEG3 expression level: 53
[2]; 8-factor experiment LPA, FICZ, Pyrintegrin, Laminin521, G0693, Vit.C, G-SCF, activin A, 3 days, media with SCF and TPO, FIG. 1/2, hydrate
  factor contribution (impact) on expression of GATA2: 12
[2]; 8-factor experiment LPA, FICZ, Pyrintegrin, Laminin521, G0693, Vit.C, G-SCF, activin A, 3 days, media with SCF and TPO, FIG. 1/2, listed as Vit. C, hydrate
  factor contribution (impact) on expression of GATA2: positive impact
[2]
  factor contribution on expression of MEG3: 16

## fibronectin
[2]; [5]
  factor contribution on expression of CRHBP: 18

## lysophosphatidic acid [LPA]
[1]; all finalized factors present
  GATA2 expression level: 644
[1]; [3]
  GATA2 expression level: 525
[2]; [5]
  factor contribution on expression of CRHBP: 8

B1: Activin A: TGFb pathway agonist (protein, UniProt P08476 311-426, looked up)
Inhibin beta A chain: GLECDGKVNICCKKQFFVSFKDIGWNDWIIAPSGYHANYCEGECPSHIAGTSGSSLSFHSTVINHYRMRGHSPFANLKSCCVPTKLRPMSMLYYDDGQNIIKKDIQNMIVEECGCS
modifications: Inhibin beta A chain
notes: TGFb pathway agonist
[1]; all finalized factors present
  MEG3 expression level: 81
[1]; [3]
  GATA2 expression level: positive impact
  HOXA5 expression level: positive impact
  MEG3 expression level: 40
[2]; [4]
  factor contribution (impact) on expression of GATA2: modest; also recorded: positive impact
[2]; [5]
  factor contribution on expression of CRHBP: 26
[2]
  factor contribution on expression of MEG3: 23

B2: tropoelastin: effector tested in the 8-factor experiment (protein, UniProt P15502 27-786, looked up)
Elastin: GGVPGAIPGGVPGGVFYPGAGLGALGGGALGPGGKPLKPVPGGLAGAGLGAGLGAFPAVTFPGALVPGGVADAAAAYKAAKAGAGLGGVPGVGGLGVSAGAVVPQPGAGVKPGKVPGVGLPGVYPGGVLPGARFPGVGVLPGVPTGAGVKPKAPGVGGAFAGIPGVGPFGGPQPGVPLGYPIKAPKLPGGYGLPYTTGKLPYGYGPGGVAGAAGKAGYPTGTGVGPQAAAAAAAKAAAKFGAGAAGVLPGVGGAGVPGVPGAIPGIGGIAGVGTPAAAAAAAAAAKAAKYGAAAGLVPGGPGFGPGVVGVPGAGVPGVGVPGAGIPVVPGAGIPGAAVPGVVSPEAAAKAAAKAAKYGARPGVGVGGIPTYGVGAGGFPGFGVGVGGIPGVAGVPGVGGVPGVGGVPGVGISPEAQAAAAAKAAKYGAAGAGVLGGLVPGAPGAVPGVPGTGGVPGVGTPAAAAAKAAAKAAQFGLVPGVGVAPGVGVAPGVGVAPGVGLAPGVGVAPGVGVAPGVGVAPGIGPGGVAAAAKSAAKVAAKAQLRAAAGLGAGIPGLGVGVGVPGLGVGAGVPGLGVGAGVPGFGAGADEGVRRSLSPELREGDPSSSQHLPSTPSSPRVPGALAAAKAAKYGAAVPGVLGGLGALGGVGIPGGVVGAGPAAAAAAAKAAAKAAQFGLVGAAGLGGLGVGGLGVPGVGGLGGIPPAAAAKAAKYGAAGLGGVLGGAGQFPLGGVAARPGFGLSPIFPGGACLGKACGRKRK
[2]; [6]
  effect of treatment on other HSC enriched genes: downregulates
[2]; [7]
  factor contribution (impact) on expression of GATA2: 17

B3: G-CSF: commonly used cytokine to expand HSC (protein, UniProt P09919 31-207, looked up)
Granulocyte …: TPLGPASSLPQSFLLKCLEQVRKIQGDGAALQEKLVSECATYKLCHPEELVLLGHSLGIPWAPLSSCPSQALQLAGCLSQLHSGLFLYQGLLQALEGISPELGPTLDTLQLDVADFATTIWQQMEELGMAPALQPTQGAMPAFASAFQRRAGGVLVASHLQSFLEVSYRVLRHLAQP
CD34+ cells
  lineage bias of CD34+ cells cultured in the presence of the cytokine: induction of a myeloid bias
